Read-outs that look alike come from different tables or passages of the source. Positions of bridges follow the written chain, without caps; N, C: chain ends. Residues, ends and D or L forms follow the SMILES beside them.
Tests used:
[1] = molecular target: T1, human holoIR-A over-expressed in HEK293 cells (Homo sapiens, UniProt P06213); experiment: Inhibition of hIR phosphorylation by peptides, co-incubated with BHI at its EC50 (ELISA); assay type: cell-based; conditions: for hIRA Phosph IC50 Run 1 / hIRA Phosph IC50 Run 2 / hIRA Phosph IC50 Run 3: inhibition of insulin-stimulated phosphorylation; for hIRA Phosph IC50 Run 1: BHI at its EC50, run 1; for hIRA Phosph IC50 Run 2: BHI at its EC50, run 2; for hIRA Phosph IC50 Run 3: BHI at its EC50, run 3; for IC50: read-out: hIRA Phosph IC50 Mean
T1 construct: expressed in transfected cells; host or cells: HEK293, stably transfected
How it was run: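 Phosphorylation ELISA (TMB, A450) after anti-C9 capture of lysates from stably transfected HEK293 cells expressing C-terminally C9-tagged human holoIR-A, serum-starved overnight in 0.1% BSA/DMEM. Percent specific response versus log concentration, from three independent runs on three days.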

[2] = molecular target: T2, human IR-A (holoIR-A) (Homo sapiens, UniProt P06213); experiment: holoIR-A competitive radioligand binding assay (scintillation proximity assay); conditions: for reduction in ki for hIR-A on substitution: relative to control peptide IM172N22 devoid of N-terminal phenylacetylation
T2 construct: expressed in transfected cells; host or cells: HEK293 (ATCC #CRL-1573), stably transfected; membrane preparation
How it was run: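 Membranes from HEK293 cells stably expressing C9-tagged human IR-A were used in a WGA-bead SPA competition assay in 50 mM Tris-HCl pH 7.5, 150 mM NaCl, 0.1% fatty-acid-free BSA. Ten-point 3-fold dilutions were incubated 10 h at room temperature before scintillation counting. Percent specific inhibition was calculated after nonspecific-binding correction, from three independent runs.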

[3] = IM172N22(-) mutant peptide set, run 1, read-out: hIRA Binding Ki Run 1
[4] = IM172N22(-) mutant peptide set, run 2, read-out: hIRA Binding Ki Run 2
[5] = IM172N22(-) mutant peptide set, run 3, read-out: hIRA Binding Ki Run 3
[6] = IM172N22(-) mutant peptide set, mean of 3 runs, read-out: hIRA Binding Ki Mean

T1 sequence (P06213 28-1370 isoform P06213-2 limits assumed): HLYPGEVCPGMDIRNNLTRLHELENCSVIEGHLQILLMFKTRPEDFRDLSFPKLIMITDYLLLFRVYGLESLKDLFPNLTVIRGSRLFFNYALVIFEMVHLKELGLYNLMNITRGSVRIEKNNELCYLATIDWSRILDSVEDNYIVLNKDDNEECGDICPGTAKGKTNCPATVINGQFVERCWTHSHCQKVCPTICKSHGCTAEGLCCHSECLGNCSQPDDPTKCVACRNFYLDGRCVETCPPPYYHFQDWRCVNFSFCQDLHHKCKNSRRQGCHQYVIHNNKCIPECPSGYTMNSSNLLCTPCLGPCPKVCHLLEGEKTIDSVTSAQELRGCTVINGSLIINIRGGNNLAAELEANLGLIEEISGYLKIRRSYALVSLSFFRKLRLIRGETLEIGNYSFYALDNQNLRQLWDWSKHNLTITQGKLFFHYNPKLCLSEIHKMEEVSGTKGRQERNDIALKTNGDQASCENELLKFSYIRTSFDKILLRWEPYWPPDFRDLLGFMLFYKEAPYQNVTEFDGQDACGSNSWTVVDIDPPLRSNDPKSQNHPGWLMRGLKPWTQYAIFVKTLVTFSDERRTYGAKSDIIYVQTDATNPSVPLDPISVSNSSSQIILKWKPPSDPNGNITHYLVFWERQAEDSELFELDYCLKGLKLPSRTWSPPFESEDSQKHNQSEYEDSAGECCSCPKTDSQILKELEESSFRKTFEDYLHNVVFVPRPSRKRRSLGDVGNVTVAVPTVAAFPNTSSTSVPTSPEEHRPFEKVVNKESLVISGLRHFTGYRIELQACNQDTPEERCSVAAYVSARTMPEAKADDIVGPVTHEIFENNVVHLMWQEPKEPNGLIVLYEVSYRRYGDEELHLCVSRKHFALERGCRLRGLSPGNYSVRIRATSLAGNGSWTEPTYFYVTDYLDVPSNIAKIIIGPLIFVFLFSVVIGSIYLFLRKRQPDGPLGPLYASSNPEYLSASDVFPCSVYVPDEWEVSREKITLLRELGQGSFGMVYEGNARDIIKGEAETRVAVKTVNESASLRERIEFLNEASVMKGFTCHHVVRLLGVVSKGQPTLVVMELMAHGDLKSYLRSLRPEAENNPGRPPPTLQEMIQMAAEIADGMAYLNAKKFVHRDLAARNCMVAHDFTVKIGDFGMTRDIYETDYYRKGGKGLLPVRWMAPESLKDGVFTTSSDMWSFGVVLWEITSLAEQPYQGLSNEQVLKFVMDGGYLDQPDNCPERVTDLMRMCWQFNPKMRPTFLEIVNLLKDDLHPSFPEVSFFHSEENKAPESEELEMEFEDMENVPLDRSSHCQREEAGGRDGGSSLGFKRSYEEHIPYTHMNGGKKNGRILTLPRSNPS
T1 sequence (P06213 763-1382 partner limits assumed): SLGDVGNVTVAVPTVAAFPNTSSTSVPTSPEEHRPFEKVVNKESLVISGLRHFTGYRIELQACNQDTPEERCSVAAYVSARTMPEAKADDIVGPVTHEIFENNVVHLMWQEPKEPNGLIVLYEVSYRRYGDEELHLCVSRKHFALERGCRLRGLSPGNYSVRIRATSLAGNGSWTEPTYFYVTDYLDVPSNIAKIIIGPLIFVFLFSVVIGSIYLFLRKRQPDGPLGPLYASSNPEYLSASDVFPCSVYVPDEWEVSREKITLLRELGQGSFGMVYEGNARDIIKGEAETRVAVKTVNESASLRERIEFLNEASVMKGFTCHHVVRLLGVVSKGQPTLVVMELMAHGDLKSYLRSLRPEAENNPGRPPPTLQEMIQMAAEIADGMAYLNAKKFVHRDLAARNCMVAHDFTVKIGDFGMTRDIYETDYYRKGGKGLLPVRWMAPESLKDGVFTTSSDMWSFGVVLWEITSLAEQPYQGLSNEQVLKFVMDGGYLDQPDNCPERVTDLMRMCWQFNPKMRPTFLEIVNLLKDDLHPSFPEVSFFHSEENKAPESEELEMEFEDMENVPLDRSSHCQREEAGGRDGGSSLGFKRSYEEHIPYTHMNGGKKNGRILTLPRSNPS
T2 sequence (P06213 28-1370 isoform P06213-2 limits assumed): as the sequence (P06213 28-1370 isoform P06213-2 limits assumed) above
T2 sequence (P06213 763-1382 partner limits assumed): as the sequence (P06213 763-1382 partner limits assumed) above

CC[C@H](C)[C@H](NC(=O)[C@H](CCC(N)=O)NC(=O)[C@H](C)NC(=O)[C@H](Cc1c[nH]c2ccccc12)NC(=O)[C@H](CCC(=O)O)NC(=O)[C@H](CCC(=O)O)NC(=O)[C@H](CCC(=O)O)NC(=O)[C@H](CC(C)C)NC(=O)[C@H](CO)NC(C)=O)C(=O)N[C@@H](CCC(=O)O)C(=O)N[C@H]1CSSC[C@@H](C(=O)N2CCC[C@H]2C(=O)N2CCC[C@H]2C(=O)N[C@@H](CO)C(=O)N[C@@H](CCC(=O)O)C(=O)N[C@@H](CO)C(N)=O)NC(=O)[C@H](CCCNC(=N)N)NC(=O)CNC(=O)[C@H](Cc2ccc(O)cc2)NC(=O)[C@H](C(C)C)NC(=O)[C@H](CCC(=O)O)NC1=O [IM172N22-] (Ac-SLEEEWAQIECEVYGRCPPSES-NH2; disulfide 11-17)
hIRA Phosph IC50 Run 1 [1]: 85 nM | hIRA Phosph IC50 Run 2 [1]: 76 nM | hIRA Phosph IC50 Run 3 [1]: 80 nM | IC50 [1]: 80.3 nM | Ki [2, 3]: 7.07 nM | Ki [2, 4]: 8.06 nM | Ki [2, 5]: 9.36 nM | Ki ([2]; read-out: hIRA Binding Ki Mean): 8.16 nM

CC[C@H](C)[C@H](NC(=O)[C@H](CCC(N)=O)NC(=O)[C@H](C)NC(=O)[C@H](Cc1c[nH]c2ccccc12)NC(=O)[C@H](CCC(=O)O)NC(=O)[C@H](CCC(=O)O)NC(=O)[C@H](CCC(=O)O)NC(=O)[C@H](CC(C)C)NC(=O)[C@H](CO)NC(C)=O)C(=O)N[C@@H](CCC(=O)O)C(=O)N[C@H]1CSSC[C@@H](C(=O)N2CCC[C@H]2C(=O)N2CCC[C@H]2C(=O)N[C@@H](CO)C(=O)N[C@@H](CCC(=O)O)C(=O)N[C@@H](CO)C(N)=O)NC(=O)[C@H](CCCNC(=N)N)NC(=O)CNC(=O)[C@H](Cc2ccc(O)cc2)NC(=O)[C@H](C(C)C)NC(=O)[C@H](C)NC1=O [Peptide E12A] (Ac-SLEEEWAQIECAVYGRCPPSES-NH2; disulfide 11-17)
hIRA Phosph IC50 Run 1 [1]: 343 nM | hIRA Phosph IC50 Run 2 [1]: 247 nM | hIRA Phosph IC50 Run 3 [1]: 295 nM | IC50 [1]: 295 nM | Ki [2, 6]: 50.3 nM | Ki [2, 3]: 44.9 nM | Ki [2, 4]: 52.2 nM | Ki [2, 5]: 53.9 nM

CC[C@H](C)[C@H](NC(=O)[C@H](CCC(N)=O)NC(=O)[C@H](C)NC(=O)[C@H](Cc1c[nH]c2ccccc12)NC(=O)[C@H](CCC(=O)O)NC(=O)[C@H](CCC(=O)O)NC(=O)[C@H](CCC(=O)O)NC(=O)[C@H](CC(C)C)NC(=O)[C@H](CO)NC(C)=O)C(=O)N[C@@H](CCC(=O)O)C(=O)N[C@H]1CSSC[C@@H](C(=O)N2CCC[C@H]2C(=O)N2CCC[C@H]2C(=O)N[C@@H](CO)C(=O)N[C@@H](CCC(=O)O)C(=O)N[C@@H](CO)C(N)=O)NC(=O)[C@H](C)NC(=O)CNC(=O)[C@H](Cc2ccc(O)cc2)NC(=O)[C@H](C(C)C)NC(=O)[C@H](CCC(=O)O)NC1=O [Peptide R16A] (Ac-SLEEEWAQIECEVYGACPPSES-NH2; disulfide 11-17)
hIRA Phosph IC50 Run 1 [1]: 583 nM | hIRA Phosph IC50 Run 2 [1]: 517 nM | hIRA Phosph IC50 Run 3 [1]: 744 nM | IC50 [1]: 615 nM | Ki [2, 6]: 228 nM | Ki [2, 3]: 211 nM | Ki [2, 4]: 237 nM | Ki [2, 5]: 235 nM

CC[C@H](C)[C@H](NC(=O)[C@H](CCC(N)=O)NC(=O)[C@H](C)NC(=O)[C@H](Cc1c[nH]c2ccccc12)NC(=O)[C@H](CCC(=O)O)NC(=O)[C@H](CCC(=O)O)NC(=O)[C@H](CCC(=O)O)NC(=O)[C@H](CC(C)C)NC(=O)[C@H](C)NC(C)=O)C(=O)N[C@@H](CCC(=O)O)C(=O)N[C@H]1CSSC[C@@H](C(=O)N2CCC[C@H]2C(=O)N2CCC[C@H]2C(=O)N[C@@H](CO)C(=O)N[C@@H](CCC(=O)O)C(=O)N[C@@H](CO)C(N)=O)NC(=O)[C@H](CCCNC(=N)N)NC(=O)CNC(=O)[C@H](Cc2ccc(O)cc2)NC(=O)[C@H](C(C)C)NC(=O)[C@H](CCC(=O)O)NC1=O [Peptide S1A] (Ac-ALEEEWAQIECEVYGRCPPSES-NH2; disulfide 11-17)
hIRA Phosph IC50 Run 1 [1]: 119 nM | hIRA Phosph IC50 Run 2 [1]: 127 nM | hIRA Phosph IC50 Run 3 [1]: 121 nM | IC50 [1]: 122 nM | Ki [2, 6]: 9.1 nM | Ki [2, 3]: 8.71 nM | Ki [2, 4]: 8.06 nM | Ki [2, 5]: 10.5 nM | reduction in ki for hIR-A on substitution [2]: lower than 5 fold

CC[C@H](C)[C@H](NC(=O)[C@H](CCC(N)=O)NC(=O)[C@H](C)NC(=O)[C@H](Cc1c[nH]c2ccccc12)NC(=O)[C@H](CCC(=O)O)NC(=O)[C@H](CCC(=O)O)NC(=O)[C@H](CCC(=O)O)NC(=O)[C@H](CC(C)C)NC(=O)[C@H](CO)NC(C)=O)C(=O)N[C@@H](CCC(=O)O)C(=O)N[C@H]1CSSC[C@@H](C(=O)N2CCC[C@H]2C(=O)N2CCC[C@H]2C(=O)N[C@@H](CO)C(=O)N[C@@H](CCC(=O)O)C(=O)N[C@@H](CO)C(N)=O)NC(=O)[C@H](CCCNC(=N)N)NC(=O)CNC(=O)[C@H](Cc2ccc(O)cc2)NC(=O)[C@H](C)NC(=O)[C@H](CCC(=O)O)NC1=O [Peptide V13A] (Ac-SLEEEWAQIECEAYGRCPPSES-NH2; disulfide 11-17)
hIRA Phosph IC50 Run 1 [1]: 2321 nM | hIRA Phosph IC50 Run 2 [1]: 2401 nM | hIRA Phosph IC50 Run 3 [1]: 2832 nM | IC50 [1]: 2520 nM | Ki [2, 6]: 215 nM | Ki [2, 3]: 203 nM | Ki [2, 4]: 265 nM | Ki [2, 5]: 177 nM

CC[C@H](C)[C@H](NC(=O)[C@H](CCC(N)=O)NC(=O)[C@H](C)NC(=O)[C@H](Cc1c[nH]c2ccccc12)NC(=O)[C@H](CCC(=O)O)NC(=O)[C@H](CCC(=O)O)NC(=O)[C@H](CCC(=O)O)NC(=O)[C@H](CC(C)C)NC(=O)[C@H](CO)NC(C)=O)C(=O)N[C@@H](CCC(=O)O)C(=O)N[C@H]1CSSC[C@@H](C(=O)N2CCC[C@H]2C(=O)N2CCC[C@H]2C(=O)N[C@@H](C)C(=O)N[C@@H](CCC(=O)O)C(=O)N[C@@H](CO)C(N)=O)NC(=O)[C@H](CCCNC(=N)N)NC(=O)CNC(=O)[C@H](Cc2ccc(O)cc2)NC(=O)[C@H](C(C)C)NC(=O)[C@H](CCC(=O)O)NC1=O [Peptide S20A] (Ac-SLEEEWAQIECEVYGRCPPAES-NH2; disulfide 11-17)
hIRA Phosph IC50 Run 1 [1]: 53 nM | hIRA Phosph IC50 Run 2 [1]: 40 nM | hIRA Phosph IC50 Run 3 [1]: 53 nM | IC50 [1]: 48.5 nM | Ki [2, 6]: 5.4 nM | Ki [2, 3]: 4.72 nM | Ki [2, 4]: 5.70 nM | Ki [2, 5]: 5.77 nM | reduction in ki for hIR-A on substitution [2]: lower than 5 fold

CC[C@H](C)[C@H](NC(=O)[C@H](CCC(N)=O)NC(=O)[C@H](C)NC(=O)[C@H](Cc1c[nH]c2ccccc12)NC(=O)[C@H](CCC(=O)O)NC(=O)[C@H](CCC(=O)O)NC(=O)[C@H](CCCNC(=N)N)NC(=O)[C@H](CC(C)C)NC(=O)[C@H](CO)NC(C)=O)C(=O)N[C@@H](CCC(=O)O)C(=O)N[C@H]1CSSC[C@@H](C(=O)N2CCC[C@H]2C(=O)N2CCC[C@H]2C(=O)N[C@@H](CO)C(=O)N[C@@H](CCC(=O)O)C(=O)N[C@@H](CO)C(N)=O)NC(=O)[C@H](CCCNC(=N)N)NC(=O)CNC(=O)[C@H](Cc2ccc(O)cc2)NC(=O)[C@H](C(C)C)NC(=O)[C@H](CCC(=O)O)NC1=O [Peptide E3R] (Ac-SLREEWAQIECEVYGRCPPSES-NH2; disulfide 11-17)
hIRA Phosph IC50 Run 1 [1]: >10000 nM | hIRA Phosph IC50 Run 2 [1]: >10000 nM | hIRA Phosph IC50 Run 3 [1]: >10000 nM | IC50 [1]: > 10000 nM | Ki [2, 6]: > 4240 nM | Ki [2, 3]: > 1210 nM | Ki [2, 4]: > 4160 nM | Ki [2, 5]: > 4240 nM

CC[C@H](C)[C@H](NC(=O)[C@H](CCC(N)=O)NC(=O)[C@H](C)NC(=O)[C@H](Cc1c[nH]c2ccccc12)NC(=O)[C@H](CCC(=O)O)NC(=O)[C@H](C)NC(=O)[C@H](CCC(=O)O)NC(=O)[C@H](CC(C)C)NC(=O)[C@H](CO)NC(C)=O)C(=O)N[C@@H](CCC(=O)O)C(=O)N[C@H]1CSSC[C@@H](C(=O)N2CCC[C@H]2C(=O)N2CCC[C@H]2C(=O)N[C@@H](CO)C(=O)N[C@@H](CCC(=O)O)C(=O)N[C@@H](CO)C(N)=O)NC(=O)[C@H](CCCNC(=N)N)NC(=O)CNC(=O)[C@H](Cc2ccc(O)cc2)NC(=O)[C@H](C(C)C)NC(=O)[C@H](CCC(=O)O)NC1=O [Peptide E4A] (Ac-SLEAEWAQIECEVYGRCPPSES-NH2; disulfide 11-17)
hIRA Phosph IC50 Run 1 [1]: 241 nM | hIRA Phosph IC50 Run 2 [1]: 205 nM | hIRA Phosph IC50 Run 3 [1]: 206 nM | IC50 [1]: 217 nM | Ki [2, 6]: 25.5 nM | Ki [2, 3]: 29.0 nM | Ki [2, 4]: 20.0 nM | Ki [2, 5]: 27.5 nM | reduction in ki for hIR-A on substitution [2]: lower than 5 fold
